Test results published in PubChem BioAssay AID1918930 (Molecular Pharmacology Branch, DTP, NCI, 2023).

System: 233499-124-R-J3-PDC complex spheroid viability, % test/control
Assay: Anticancer human tumor 233499-124-R-J3-PDC patient-derived colon adenocarcinoma cell line growth inhibition
Details: for IC50: curve of first compound; for viability, T/C: stronger effect = lower value
Outline: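 Multicellular complex spheroids of tumor cells with human endothelial cells (HUVEC) and mesenchymal stem cells; the LSD1 inhibitor iadademstat was combined with standard-of-care or investigational agents. Top concentration at or near clinical Cmax, half-log dilutions; final DMSO ≤0.25%.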

[1] = second compound 0.1 µM, first compound 0.0316 µM
[2] = second compound 0.1 µM, first compound 0.1 µM
[3] = second compound 0.316 µM, first compound 0.0316 µM
[4] = second compound 0.316 µM, first compound 0.1 µM
[5] = second compound 1 µM, first compound 0.0316 µM
[6] = second compound 1 µM, first compound 0.1 µM
[7] = second compound 3.16 µM, first compound 0.0316 µM
[8] = second compound 3.16 µM, first compound 0.1 µM
[9] = second compound 10 µM, first compound 0.0316 µM
[10] = second compound 10 µM, first compound 0.1 µM
[11] = second compound 0.1 µM, first compound 0.000949 µM
[12] = second compound 0.1 µM, first compound 0.003 µM
[13] = second compound 0.1 µM, first compound 0.00949 µM
[14] = second compound 0.1 µM, first compound 0.03 µM
[15] = second compound 0.1 µM, first compound 0.0949 µM
[16] = second compound 0.1 µM, first compound 0.3 µM
[17] = second compound 0.316 µM, first compound 0.000949 µM
[18] = second compound 0.316 µM, first compound 0.003 µM
[19] = second compound 0.316 µM, first compound 0.00949 µM
[20] = second compound 0.316 µM, first compound 0.03 µM
[21] = second compound 0.316 µM, first compound 0.0949 µM
[22] = second compound 0.316 µM, first compound 0.3 µM
[23] = second compound 1 µM, first compound 0.000949 µM
[24] = second compound 1 µM, first compound 0.003 µM
[25] = second compound 1 µM, first compound 0.00949 µM
[26] = second compound 1 µM, first compound 0.03 µM
[27] = second compound 1 µM, first compound 0.0949 µM
[28] = second compound 1 µM, first compound 0.3 µM
[29] = second compound 3.16 µM, first compound 0.000949 µM
[30] = second compound 3.16 µM, first compound 0.003 µM
[31] = second compound 3.16 µM, first compound 0.00949 µM
[32] = second compound 3.16 µM, first compound 0.03 µM
[33] = second compound 3.16 µM, first compound 0.0949 µM
[34] = second compound 3.16 µM, first compound 0.3 µM
[35] = second compound 10 µM, first compound 0.000949 µM
[36] = second compound 10 µM, first compound 0.003 µM
[37] = second compound 10 µM, first compound 0.00949 µM
[38] = second compound 10 µM, first compound 0.03 µM
[39] = second compound 10 µM, first compound 0.0949 µM
[40] = second compound 10 µM, first compound 0.3 µM
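Note: spheroids exposed to agents for one week before readout.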

CC[C@@]1(O)C(=O)OCc2c1cc1n(c2=O)Cc2cc3c(CN(C)C)c(O)ccc3nc2-1 + NC1CCC(NC2CC2c2ccccc2)CC1
IC50 (second compound 0.1 µM): > 100 nM
IC50 (second compound 0.316 µM): 31.6 nM
IC50 (second compound 1 µM): > 100 nM
IC50 (second compound 3.16 µM): > 100 nM
IC50 (second compound 10 µM): > 100 nM
viability, T/C (second compound 0.1 µM, first compound 0.000316 µM): 104%
viability, T/C (second compound 0.1 µM, first compound 0.001 µM): 76.6%
viability, T/C (second compound 0.1 µM, first compound 0.00316 µM): 79.7%
viability, T/C (second compound 0.1 µM, first compound 0.01 µM): 64%
viability, T/C [1]: 71.9%
viability, T/C [2]: 87.9%
viability, T/C (second compound 0.316 µM, first compound 0.000316 µM): 93.7%
viability, T/C (second compound 0.316 µM, first compound 0.001 µM): 80.1%
viability, T/C (second compound 0.316 µM, first compound 0.00316 µM): 88.9%
viability, T/C (second compound 0.316 µM, first compound 0.01 µM): 47.5%
viability, T/C [3]: 54.5%
viability, T/C [4]: 66.1%
viability, T/C (second compound 1 µM, first compound 0.000316 µM): 65.9%
viability, T/C (second compound 1 µM, first compound 0.001 µM): 63.9%
viability, T/C (second compound 1 µM, first compound 0.00316 µM): 50.3%
viability, T/C (second compound 1 µM, first compound 0.01 µM): 51.5%
viability, T/C [5]: 71.2%
viability, T/C [6]: 63.8%
viability, T/C (second compound 3.16 µM, first compound 0.000316 µM): 92%
viability, T/C (second compound 3.16 µM, first compound 0.001 µM): 74.9%
viability, T/C (second compound 3.16 µM, first compound 0.00316 µM): 56.8%
viability, T/C (second compound 3.16 µM, first compound 0.01 µM): 53.6%
viability, T/C [7]: 58.8%
viability, T/C [8]: 69.9%
viability, T/C (second compound 10 µM, first compound 0.000316 µM): 76.9%
viability, T/C (second compound 10 µM, first compound 0.001 µM): 82.9%
viability, T/C (second compound 10 µM, first compound 0.00316 µM): 68.4%
viability, T/C (second compound 10 µM, first compound 0.01 µM): 48%
viability, T/C [9]: 60.8%
viability, T/C [10]: 80.7%

CCc1c2c(nc3ccc(O)cc13)-c1cc3c(c(=O)n1C2)COC(=O)[C@]3(O)CC + NC1CCC(NC2CC2c2ccccc2)CC1
IC50 (second compound 0.1 µM): 25 nM
IC50 (second compound 0.316 µM): 27.5 nM
IC50 (second compound 1 µM): 29.4 nM
IC50 (second compound 3.16 µM): 37.1 nM
IC50 (second compound 10 µM): 40.5 nM
viability, T/C [11]: 80.5%
viability, T/C [12]: 99.5%
viability, T/C [13]: 89.6%
viability, T/C [14]: 42.6%
viability, T/C [15]: 19.8%
viability, T/C [16]: 20.4%
viability, T/C [17]: 99.6%
viability, T/C [18]: 92.2%
viability, T/C [19]: 107%
viability, T/C [20]: 46%
viability, T/C [21]: 28.6%
viability, T/C [22]: 12.8%
viability, T/C [23]: 72.6%
viability, T/C [24]: 89.5%
viability, T/C [25]: 95.6%
viability, T/C [26]: 49.3%
viability, T/C [27]: 16.8%
viability, T/C [28]: 13.2%
viability, T/C [29]: 90.8%
viability, T/C [30]: 92.1%
viability, T/C [31]: 99.7%
viability, T/C [32]: 56%
viability, T/C [33]: 28.5%
viability, T/C [34]: 18.2%
viability, T/C [35]: 72.3%
viability, T/C [36]: 78.3%
viability, T/C [37]: 93.2%
viability, T/C [38]: 58.8%
viability, T/C [39]: 27.1%
viability, T/C [40]: 22.9%

Nc1ccccc1NC(=O)c1ccc(CNC(=O)OCc2cccnc2)cc1 + NC1CCC(NC2CC2c2ccccc2)CC1
IC50 (second compound 0.1 µM): 476 nM
IC50 (second compound 0.316 µM): 579 nM
IC50 (second compound 1 µM): 523 nM
IC50 (second compound 3.16 µM): 525 nM
IC50 (second compound 10 µM): 463 nM
viability, T/C [13]: 112%
viability, T/C [14]: 93.4%
viability, T/C [15]: 106%
viability, T/C [16]: 65.8%
viability, T/C (second compound 0.1 µM, first compound 0.949 µM): 24%
viability, T/C (second compound 0.1 µM, first compound 3 µM): 2.31%
viability, T/C [19]: 92.2%
viability, T/C [20]: 91.8%
viability, T/C [21]: 101%
viability, T/C [22]: 91.2%
viability, T/C (second compound 0.316 µM, first compound 0.949 µM): 19.1%
viability, T/C (second compound 0.316 µM, first compound 3 µM): 5.83%
viability, T/C [25]: 81.9%
viability, T/C [26]: 99.9%
viability, T/C [27]: 92%
viability, T/C [28]: 88.4%
viability, T/C (second compound 1 µM, first compound 0.949 µM): 8.94%
viability, T/C (second compound 1 µM, first compound 3 µM): 4.76%
viability, T/C [31]: 78.8%
viability, T/C [32]: 89.5%
viability, T/C [33]: 76.7%
viability, T/C [34]: 82.1%
viability, T/C (second compound 3.16 µM, first compound 0.949 µM): 16.5%
viability, T/C (second compound 3.16 µM, first compound 3 µM): 4.56%
viability, T/C [37]: 74.8%
viability, T/C [38]: 92.3%
viability, T/C [39]: 75.2%
viability, T/C [40]: 73.4%
viability, T/C (second compound 10 µM, first compound 0.949 µM): 11.5%
viability, T/C (second compound 10 µM, first compound 3 µM): 3.56%

Nc1ccn(C2OC(CO)C(O)C2(F)F)c(=O)n1 (stereo not given) + NC1CCC(NC2CC2c2ccccc2)CC1
IC50 (second compound 0.1 µM): 2.48 nM
IC50 (second compound 0.316 µM): 4.47 nM
IC50 (second compound 1 µM): 6.13 nM
IC50 (second compound 3.16 µM): 1.07 nM
IC50 (second compound 10 µM): < 0.949 nM
viability, T/C [11]: 100%
viability, T/C [12]: 35.6%
viability, T/C [13]: 43.9%
viability, T/C [14]: 21.9%
viability, T/C [15]: 30.3%
viability, T/C [16]: 21.1%
viability, T/C [17]: 99.4%
viability, T/C [18]: 58.8%
viability, T/C [19]: 22.2%
viability, T/C [20]: 32.3%
viability, T/C [21]: 37.9%
viability, T/C [22]: 41.5%
viability, T/C [23]: 88.7%
viability, T/C [24]: 62.1%
viability, T/C [25]: 44.4%
viability, T/C [26]: 31.1%
viability, T/C [27]: 26.6%
viability, T/C [28]: 35.1%
viability, T/C [29]: 51.4%
viability, T/C [30]: 40.9%
viability, T/C [31]: 36.9%
viability, T/C [32]: 47.2%
viability, T/C [33]: 18.9%
viability, T/C [34]: 39.5%
viability, T/C [35]: 59.2%
viability, T/C [36]: 29.7%
viability, T/C [37]: 29.2%
viability, T/C [38]: 34.9%
viability, T/C [39]: 27.3%
viability, T/C [40]: 37%

O=C(c1cc(Cc2n[nH]c(=O)c3ccccc23)ccc1F)N1CCN(C(=O)C2CC2)CC1 + NC1CCC(NC2CC2c2ccccc2)CC1
IC50 (second compound 0.1 µM): > 10000 nM
IC50 (second compound 0.316 µM): > 10000 nM
IC50 (second compound 1 µM): > 10000 nM
IC50 (second compound 3.16 µM): > 10000 nM
IC50 (second compound 10 µM): > 10000 nM
viability, T/C [1]: 101%
viability, T/C [2]: 107%
viability, T/C (second compound 0.1 µM, first compound 0.316 µM): 102%
viability, T/C (second compound 0.1 µM, first compound 1 µM): 102%
viability, T/C (second compound 0.1 µM, first compound 3.16 µM): 91.7%
viability, T/C (second compound 0.1 µM, first compound 10 µM): 81.6%
viability, T/C [3]: 109%
viability, T/C [4]: 102%
viability, T/C (second compound 0.316 µM, first compound 0.316 µM): 90.5%
viability, T/C (second compound 0.316 µM, first compound 1 µM): 92.3%
viability, T/C (second compound 0.316 µM, first compound 3.16 µM): 85.6%
viability, T/C (second compound 0.316 µM, first compound 10 µM): 97.3%
viability, T/C [5]: 94.5%
viability, T/C [6]: 83.3%
viability, T/C (second compound 1 µM, first compound 0.316 µM): 71.1%
viability, T/C (second compound 1 µM, first compound 1 µM): 81.3%
viability, T/C (second compound 1 µM, first compound 3.16 µM): 86.1%
viability, T/C (second compound 1 µM, first compound 10 µM): 95%
viability, T/C [7]: 82.7%
viability, T/C [8]: 90.5%
viability, T/C (second compound 3.16 µM, first compound 0.316 µM): 84.8%
viability, T/C (second compound 3.16 µM, first compound 1 µM): 75.3%
viability, T/C (second compound 3.16 µM, first compound 3.16 µM): 87.1%
viability, T/C (second compound 3.16 µM, first compound 10 µM): 79.5%
viability, T/C [9]: 79.4%
viability, T/C [10]: 68.2%
viability, T/C (second compound 10 µM, first compound 0.316 µM): 67.8%
viability, T/C (second compound 10 µM, first compound 1 µM): 69.2%
viability, T/C (second compound 10 µM, first compound 3.16 µM): 79.6%
viability, T/C (second compound 10 µM, first compound 10 µM): 69%
